Measurements published in patent publication US7211572B2 (Japan Tobacco Inc., priority 2003, dated 2007).
Where a name gives a salt, the structure may show the parent alone.

target: T1, HIV integrase (Human immunodeficiency virus type 1 group M subtype B, UniProt P12497, F1332H); assay: Determination of enzyme (HIV integrase) inhibitory activity; format: biochemical; settings: recombinant HIV integrase (F185H), strand transfer ELISA, absorbance at 450 nm
T1 construct: HIV integrase full length gene; made in house; host or cells: Escherichia coli BL21(DE3), plasmid pET21a-INH
In short: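 Full-length integrase with F185H, expressed in E. coli and purified, was reacted for 60 min at 37 °C with compound and biotinylated donor DNA bound to streptavidin plates. Target DNA was added for 10 min, then anti-digoxigenin-peroxidase detection at A450; IC50 from % inhibition versus enzyme-free blank.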

Q: For COCC(=O)Nc1cn2ccn(Cc3ccc(F)cc3)c(=O)c2c(O)c1=O [Example 318, N-[2-(4-fluorobenzyl)-9-hydroxy-1,8-dioxo-1,8-dihydro-2H-pyrido[1,2-a]pyrazin-7-yl]-2-methoxyacetamide], which IC50 is on record?
A: 10 to 100 nM

Q: How did the IC50 turn out when CC(C)S(=O)(=O)Nc1cn2ccn(Cc3ccc(F)cc3)c(=O)c2c(O)c1=O [Example 319, N-[2-(4-fluorobenzyl)-9-hydroxy-1,8-dioxo-1,8-dihydro-2H-pyrido[1,2-a]pyrazin-7-yl]-2-propanesulfonamide] was run?
A: 10 to 100 nM

Q: For O=C(Nc1cn2ccn(Cc3ccc(F)cc3)c(=O)c2c(O)c1=O)c1cccnc1 [Example 320, N-[2-(4-fluorobenzyl)-9-hydroxy-1,8-dioxo-1,8-dihydro-2H-pyrido[1,2-a]pyrazin-7-yl]nicotinamide trifluoroacetate], which IC50 is on record?
A: < 10 nM

Q: Which IC50 does the source give for CC(C)C(=O)Nc1cn2ccn(Cc3ccc(F)cc3)c(=O)c2c(O)c1=O [Example 321, N-[2-(4-fluorobenzyl)-9-hydroxy-1,8-dioxo-1,8-dihydro-2H-pyrido[1,2-a]pyrazin-7-yl]isobutyramide] here?
A: 10 to 100 nM

Q: How did the IC50 turn out when COCCNC(=O)c1cn2ccn(Cc3ccc(F)cc3)c(=O)c2c(O)c1=O [Example 322, N-(2-methoxyethyl)-2-(4-fluorobenzyl)-9-hydroxy-1,8-dioxo-1,8-dihydro-2H-pyrido[1,2-a]pyrazine-7-carboxamide] was run?
A: 10 to 100 nM

Q: For CCNC(=O)c1cn2ccn(Cc3ccc(F)cc3)c(=O)c2c(O)c1=O [Example 323, N-ethyl-2-(4-fluorobenzyl)-9-hydroxy-1,8-dioxo-1,8-dihydro-2H-pyrido[1,2-a]pyrazine-7-carboxamide], which IC50 is on record?
A: 10 to 100 nM

Q: CC(=O)Nc1cn2ccn(CCCc3c(F)cccc3Cl)c(=O)c2c(O)c1=O [Example 324, N-{2-[3-(2-chloro-6-fluorophenyl)propyl]-9-hydroxy-1,8-dioxo-1,8-dihydro-2H-pyrido[1,2-a]pyrazin-7-yl]acetamide] was tested. Which IC50 did it give?
A: 10 to 100 nM

Q: CC(=O)Nc1cn2ccn(Cc3cccc(Cl)c3F)c(=O)c2c(O)c1=O [Example 325, N-[2-(3-chloro-2-fluorobenzyl)-9-hydroxy-1,8-dioxo-1,8-dihydro-2H-pyrido[1,2-a]pyrazin-7-yl]acetamide hydrochloride] was tested. Which IC50 did it give?
A: 10 to 100 nM

Q: With COC(=O)c1cc(F)ccc1CN1CCn2cc(-c3nccs3)c(=O)c(O)c2C1=O [Example 326, methyl 5-fluoro-2-[9-hydroxy-1,8-dioxo-7-(thiazol-2-yl)-1,3,4,8-tetrahydro-pyrido[1,2-a]pyrazin-2-ylmethyl]benzoate] as the molecule, how does the IC50 read?
A: 100 to 1000 nM

Q: Which IC50 does the source give for O=C1c2c(O)c(=O)c(-c3ccccn3)cn2CCN1Cc1ccc(F)c(Cl)c1 [Example 327, 2-(3-chloro-4-fluorobenzyl)-9-hydroxy-7-(pyridin-2-yl)-3,4-dihydro-2H-pyrido[1,2-a]pyrazine-1,8-dione hydrochloride] here?
A: < 10 nM

Q: For O=C1c2c(O)c(=O)c(-c3cccnc3)cn2CCN1Cc1cccc(Cl)c1F [Example 328, 2-(3-chloro-2-fluorobenzyl)-9-hydroxy-7-(pyridin-3-yl)-3,4-dihydro-2H-pyrido[1,2-a]pyrazine-1,8-dione hydrochloride], which IC50 is on record?
A: 10 to 100 nM

Q: Which IC50 does the source give for O=C1c2c(O)c(=O)c(-c3ccccn3)cn2CCN1CCCc1c(F)cccc1Cl [Example 329, 2-[3-(2-chloro-6-fluorophenyl)propyl]-9-hydroxy-7-(pyridin-2-yl)-3,4-dihydro-2H-pyrido[1,2-a]pyrazine-1,8-dione hydrochloride] here?
A: 10 to 100 nM

Q: O=C1c2c(O)c(=O)c(-c3nccs3)cn2CCN1Cc1cc2ccccc2o1 [Example 330, 2-(benzofuran-2-ylmethyl)-9-hydroxy-7-(thiazol-2-yl)-3,4-dihydro-2H-pyrido[1,2-a]pyrazine-1,8-dione] was tested. Which IC50 did it give?
A: < 10 nM

Q: For O=C(NC(Cc1ccccc1)c1ccccc1)c1cn2c(c(O)c1=O)C(=O)N(Cc1cccc(Cl)c1)CC2 (centres unmarked) [Example 331, N-(1,2-diphenylethyl)-2-(3-chlorobenzyl)-9-hydroxy-1,8-dioxo-1,3,4,8-tetrahydro-2H-pyrido[1,2-a]pyrazine-7-carboxamide], which IC50 is on record?
A: 10 to 100 nM

Q: CC(=O)Nc1cn2c(c(O)c1=O)C(=O)N(Cc1cccc(Cl)c1F)CC2 [Example 332, N-[2-(3-chloro-2-fluorobenzyl)-9-hydroxy-1,8-dioxo-1,3,4,8-tetrahydro-2H-pyrido[1,2-a]pyrazin-7-yl]acetamide] was tested. Which IC50 did it give?
A: 10 to 100 nM

Q: Which IC50 does the source give for O=C1c2c(O)c(=O)c(-c3nccs3)cn2CCN1CCCc1ccccc1F [Example 333, 2-[3-(2-fluorophenyl)propyl)-9-hydroxy-7-(thiazol-2-yl)-3,4-dihydro-2H-pyrido[1,2-a]pyrazine-1,8-dione] here?
A: 10 to 100 nM

Q: How did the IC50 turn out when O=C(NC(CCc1ccccc1)c1ccccc1)c1cn2c(c(O)c1=O)C(=O)N(Cc1cccc(Cl)c1)CC2 (centres unmarked) [Example 334, N-(1,3-diphenylpropyl)-2-(3-chlorobenzyl)-9-hydroxy-1,8-dioxo-1,3,4,8-tetrahydro-2H-pyrido[1,2-a]pyrazine-7-carboxamide] was run?
A: 10 to 100 nM

Q: CNC(=O)c1cc(F)ccc1CCCN1CCn2cc(-c3nccs3)c(=O)c(O)c2C1=O [Example 335, 5-fluoro-2-{3-[9-hydroxy-1,8-dioxo-7-(thiazol-2-yl)-1,3,4,8-tetrahydro-pyrido[1,2-a]pyrazin-2-yl]propyl)-N-methylbenzamide] was tested. Which IC50 did it give?
A: 10 to 100 nM

Q: Which IC50 does the source give for CC(C)(C)C(=O)c1cn2c(c(O)c1=O)C(=O)N(CCCc1c(F)cccc1Cl)CC2 [Example 336, 2-[3-(2-chloro-6-fluorophenyl)propyl]-7-(2,2-dimethylpropionyl)-9-hydroxy-3,4-dihydro-2H-pyrido[1,2-a]pyrazine-1,8-dione] here?
A: < 10 nM

Q: How did the IC50 turn out when CC(C)C(=O)c1cn2c(c(O)c1=O)C(=O)N(Cc1cccc(Cl)c1)CC2 [Example 337, 2-(3-chlorobenzyl)-9-hydroxy-7-isobutyryl-3,4-dihydro-2H-pyrido[1,2-a]pyrazine-1,8-dione] was run?
A: < 10 nM

Q: Which IC50 does the source give for O=C1c2c(O)c(=O)c(-c3nccs3)cn2CCN1CCCCc1ccccc1 [Example 338, 9-hydroxy-2-(4-phenylbutyl)-7-(thiazol-2-yl)-3,4-dihydro-2H-pyrido[1,2-a]pyrazine-1,8-dione hydrochloride] here?
A: 10 to 100 nM

Q: Which IC50 does the source give for CCCCCN1CCn2cc(-c3nccs3)c(=O)c(O)c2C1=O [Example 339, 9-hydroxy-2-pentyl-7-(thiazol-2-yl)-3,4-dihydro-2H-pyrido[1,2-a]pyrazine-1,8-dione hydrochloride] here?
A: 100 to 1000 nM

Q: For O=C1c2c(O)c(=O)c(-c3ccncc3)cn2CCN1Cc1cccc(Cl)c1F [Example 340, 2-(3-chloro-2-fluorobenzyl)-9-hydroxy-7-(pyridin-4-yl)-3,4-dihydro-2H-pyrido[1,2-a]pyrazine-1,8-dione hydrochloride], which IC50 is on record?
A: < 10 nM

Q: O=c1c(-c2ccncc2)cn2ccn(Cc3ccc(F)cc3)c(=O)c2c1O [Example 341, 2-(4-fluorobenzyl)-9-hydroxy-7-(pyridin-4-yl)-2H-pyrido[1,2-a]pyrazine-1,8-dione hydrochloride] was tested. Which IC50 did it give?
A: < 10 nM

Q: O=c1c(-c2ccncn2)cn2ccn(Cc3cccc(Cl)c3F)c(=O)c2c1O [Example 342, 2-(3-chloro-2-fluorobenzyl)-9-hydroxy-7-(pyrimidin-4-yl)-2H-pyrido[1,2-a]pyrazine-1,8-dione trifluoroacetate] was tested. Which IC50 did it give?
A: < 10 nM

Q: For Cn1ncnc1-c1cn2c(c(O)c1=O)C(=O)N(Cc1ccc(F)c(Cl)c1)CC2 [Example 343, 2-(3-chloro-4-fluorobenzyl)-9-hydroxy-7-(2-methyl-2H-1,2,4-triazol-3-yl)-3,4-dihydro-2H-pyrido[1,2-a]pyrazine-1,8-dione], which IC50 is on record?
A: < 10 nM

Q: With CC(=O)c1cn2ccn(Cc3ccc(F)cc3)c(=O)c2c(O)c1=O [Example 344, 7-acetyl-2-(4-fluorobenzyl)-9-hydroxy-2H-pyrido [1,2-a]pyrazine-1,8-dione] as the molecule, how does the IC50 read?
A: < 10 nM

Q: With CC(C)C(=O)c1cn2ccn(Cc3ccc(F)cc3)c(=O)c2c(O)c1=O [Example 345, 2-(4-fluorobenzyl)-9-hydroxy-7-isobutyryl-2H-pyrido[1,2-a]pyrazine-1,8-dione hydrochloride] as the molecule, how does the IC50 read?
A: < 10 nM

Q: With O=C(Nc1cn2c(c(O)c1=O)C(=O)N(Cc1cccc(Cl)c1)CC2)c1ccncc1 [Example 346, N-[2-(3-chlorobenzyl)-9-hydroxy-1,8-dioxo-1,3,4,8-tetrahydro-2H-pyrido[1,2-a]pyrazin-7-yl]isonicotinamide hydrochloride] as the molecule, how does the IC50 read?
A: 10 to 100 nM

Q: For O=c1c(-c2ccncn2)cn2ccn(Cc3ccc(F)cc3)c(=O)c2c1O [Example 347, 2-(4-fluorobenzyl)-9-hydroxy-7-(pyrimidin-4-yl)-2H-pyrido[1,2-a]pyrazine-1,8-dione], which IC50 is on record?
A: < 10 nM

Q: With O=C1c2c(O)c(=O)c(-c3cnccn3)cn2CCN1Cc1ccc(F)c(Cl)c1 [Example 348, 2-(3-chloro-4-fluorobenzyl)-9-hydroxy-7-(pyrazin-2-yl)-3,4-dihydro-2H-pyrido[1,2-a]pyrazine-1,8-dione] as the molecule, how does the IC50 read?
A: 10 to 100 nM

Q: How did the IC50 turn out when CC(C)C(=O)Nc1cn2c(c(O)c1=O)C(=O)N(Cc1ccc(F)c(Cl)c1)CC2 [Example 349, N-[2-(3-chloro-4-fluorobenzyl)-9-hydroxy-1,8-dioxo-1,3,4,8-tetrahydro-2H-pyrido[1,2-a]pyrazin-7-yl]isobutyramide] was run?
A: 10 to 100 nM

Q: Which IC50 does the source give for O=C1c2c(O)c(=O)c(-c3nccs3)cn2CCN1Cc1ccc(Cl)cc1O [Example 350, 2-(4-chloro-2-hydroxybenzyl)-9-hydroxy-7-(thiazol-2-yl)-3,4-dihydro-2H-pyrido[1,2-a]pyrazine-1,8-dione hydrochloride] here?
A: < 10 nM

Q: Which IC50 does the source give for CC(CCN1CCn2cc(-c3nccs3)c(=O)c(O)c2C1=O)c1ccccc1 (centres unmarked) [Example 351, 9-hydroxy-2-(3-phenylbutyl)-7-(thiazol-2-yl)-3,4-dihydro-2H-pyrido[1,2-a]pyrazine-1,8-dione hydrochloride] here?
A: 10 to 100 nM

Q: For O=C(Nc1cn2c(c(O)c1=O)C(=O)N(Cc1cccc(Cl)c1F)CC2)c1cccnc1 [Example 352, N-[2-(3-chloro-2-fluorobenzyl)-9-hydroxy-1,8-dioxo-1,3,4,8-tetrahydro-2H-pyrido[1,2-a]pyrazin-7-yl)nicotinamide hydrochloride], which IC50 is on record?
A: 10 to 100 nM
